Values after ≈ are worked out from the molar mass of the structure shown. Where two headings read alike, the source gives them in different places.
How the values were obtained:
Format in all cases: in vivo
Meloidogyne incognita [1] = assay: M. incognita miniaturized greenhouse assay on cucumber seedlings; conditions: text reference to table 1D, 8 ppm and 1 ppm
Description: The test compound is dissolved in an acetone solution and added to water. A sprouted cucumber seedling is placed into a vial with dry sand and the water-chemical solution is added immediately. Twenty four hours later Meloidogyne incognita eggs are added to the vials and 10 to 12 days later the roots are evaluated for nematode galling.
Cucumber seeds are sprouted for 3 days in moist paper towels. Acceptable sprouts should be 3 to 4 cm long with several lateral roots just emerging. Stock solutions of chemistry are prepared in a mixture of acetone and Triton X100 (412 mg in 500 mL) to a final concentration of 5 mg/mL. The chemical stock solution is then added to 10 mL deionized water plus 0.015% Triton X100 and mixed thoroughly. This is enough to test each condition in triplicate. Ten mL dry sand is added to each vial. At this time the solubility of the chemistry is visually determined and recorded as either ppt (large precipitates) or cloudy (fine precipitates). Seedlings are planted by tilting the vial and laying the seedling in the correct orientation so that the cotyledons are just above the sand and then tilting back to cover the radicles with sand. 3.3 ml water/chemical mix is added to each vial and the vials placed in racks under fluorescent light banks. The vials are inoculated two days after planting by adding 500 vermiform M. incognita eggs to each vial in 50 uL of deionized or spring water. The vials are then kept under the fluorescent lamps at ambient room temperature and watered as needed with 1mL deionized water, usually twice during duration of test. Harvest of the cucumber plants is done 10 to 12 days after inoculation by washing sand off the roots. A root gall rating and visual phytotoxicity rating is assigned using the following scales: Gall rating scale (Gall: % root mass galled): 0=0-5%; 1=6-20%; 2=21-50%; and 3=51-100%. The average of the triplicate gall rating is then calculated: green=0.00-0.33 (no galls); yellow=0.67-1.33 (mild galling); orange=1.67-2.33 (moderate galling); red=2.67-3.00 (severe galling). Visual phytotoxicity scale is also assigned (Vis. tox; visual reduction in root mass compared to the control): rs1=mild stunting; rs2=moderate stunting; rs3=severe stunting.

[2] = test system: Heterodera glycines (SCN); assay: Seed treatment test of soybean cyst nematode on soybean; conditions: Heterodera glycines, 672 h, read-out: percent cyst reduction relative to control blank treatment
Description: For a given concentration the chemical is dissolved in 500 ul of acetone and one gram of cucumber seed (RKN test) or soybean seed (SCN test) is added (e.g., 20 mg active ingredient in 500 ul acetone plus 1 gram of seed). The seed solutions are agitated until all seeds were thoroughly covered with the chemical solution. The acetone is then allowed to evaporate by air drying the seeds. The seeds are planted in 2-inch pots containing sandy soil and then the pots are inoculated with 1000 Meloidogyne incognita (RKN) or 1000 Heterodera glycines (SCN) eggs per pot three days after planting. Plants are rated for galling 14 days after egg inoculation for RKN or 28 days after egg inoculation for SCN.

root knot nematode = assay: Pre-plant incorporated (PPI) greenhouse test of root knot nematode on cucumber plants; conditions: 168 h, seven day pre-plant incorporated
Text: The PPI test examines the effect of pre-incorporation of compounds in soil and longer aging to simulate in furrow methods of nematicide application in the field. The PPI test exposes compounds to a higher volume of soil and drying which can result in more severe soil binding. Compounds are also aged for longer periods which can lead to more extensive biotic and abiotic degradation further limiting activity.
The chemically treated soil (sandy soil mix) for all treatment days (e.g., 7 days, 14 days, 21 days) treatments is potted into their appropriate pots. On the same day the 7 day treatment pots are seeded. One week later eggs are applied and 14 days after egg application the test is harvested. The 14 day treatments are planted 7 days after the first planting. The 14 day planting and 7 day inoculation happen on the same day. One week later the 14 day treatments are inoculated with eggs. These are harvested 14 days after the inoculation. The 21 day treatments are planted 14 days after the first planting. The 14 day inoculation and 21 day planting are done on the same day. One week later the 21 day plants are inoculated with eggs. The 7 day treatment is harvested the same day as the 21 day inoculation. Fourteen days after inoculation the 21 day plants are harvested.
For each compound a stock is prepared using 4 mg material in 4 ml of acetone. The soil is mixed by placing 80 ml of field soil and 320 ml of sand in a plastic bag and mixing well. The formulation for treatment is done by adding 2.13 ml (8 kg/ha rate), 1.06 ml (4 kg/ha rate) or 0.53 ml (2 kg/ha rate) to a vial and raising it with 10 ml in 0.05% X100. Soil is then treated by adding the entire 10 ml to the 400 ml of mix in the bag. The treated soil is immediately mixed well in the sealed bag to distribute the compound evenly. Approximately 95 ml is used to fill each 2-inch square pot up to the top with some soil compression and flattening. For each compound and for the control treatments 4 pots are filled. All pots are watered until moist but with no run-out through the bottom.
The PPI test simulates 8, 4 and 2 kg/ha rates incorporated 15 cm deep in the field and is equivalent to the 2, 1 and 0.5 kg/ha drench application rates in the standard 2-inch pot cucumber greenhouse assay.

C. elegans = assay: Three day C. elegans well assay; conditions: for EC50: Caenorhabditis elegans
Description: Various compounds were tested for nematicidal activity against C. elegans using contact assays in wells. The assays were performed as described below. The test compounds were solubilized in DMSO at 10 mg/ml to create 100× stock solutions. A dilution series was created by diluting the stock solution with DMSO. For each well assay 4 ul of the appropriate dilution is added to a well of a test plate. A 400 ul aliquot of bacterial stock (in M9 buffer with ampicillin and nystatin) are added to each well of the test plate. Worms are added and the test plate placed on a rotary shaker and held at 20° C. Worms are examined and scored at 4 hrs, 24 hrs, 48 hrs and 72 hours. L1 worms and L4 worms were used in the assay. L1 worms are prepared by plating eggs on a plate without a bacterial feeding layer. The eggs hatch and arrest at the L1 stage. This L1 stage population is then used to create a stock for the experiments. To create an L4 stage stock a small number of worms are taken from an overgrown and starved plate of worms and seeded on a plate with a bacterial feeder layer. A 25 ul aliquot of worms is added to each well in the assay.

Meloidogyne incognita [3] = assay: Summer field evaluation of pre-plant incorporated compounds on squash; conditions: 2 kg/ha PPI, squash
Description: Test plots of 33 cm diameter holes were bored 41 cm deep into clay soil and filled with a mixture of 80% sand and 20% silt loam soil. Technical compound for each treatment was dissolved in 50 ml acetone containing 250 ul of Triton X-100 surfactant. This solution was added to 450 ml water and poured onto 95 liters of sand/soil mixture in a rotating drum mixer. While continuing to rotate the mixing drum 66 grams of chopped, galled, tomato roots was added and thoroughly distributed. The treated soil was sufficient to fill the top 15 cm of each of the 6 replicate plots, thus simulating a PPI treatment. The plots were then watered lightly and a mixture of M. incognita eggs and larvae were injected 5 cm deep at 5 points within the plot (100k eggs/larvae in 10m1 per plot). Three-week old squash (cv. Liberator III) with 1 fully expanded true leaf was planted 4 days after soil treatment, one per plot.

[4] = 24 h, L1 larvae, one day of exposure, read-out: EC50 L1 1D
[5] = 48 h, L1 larvae, two days of exposure, read-out: EC50 L1 2D
[6] = 72 h, L1 larvae, three days of exposure, read-out: EC50 L1 3D
[7] = 72 h, L4 larvae, three days, effects on the second generation larvae, read-out: EC50 L4 3D (F1)
[8] = 48 h, L4 larvae, two days of exposure, read-out: EC50 L4 2D
[9] = L4 larvae, two days of exposure
[10] = 24 h, L4 larvae, one day of exposure, read-out: EC50 L4 1D

SMILES	EC50 (C. elegans; [4])	EC50 (C. elegans; [5])	EC50 (C. elegans; [6])	EC50 (C. elegans; [7])	EC50 L4 1D (C. elegans; L4 larvae, one day of exposure)	EC50 (C. elegans; [8])	EC50 (C. elegans; [10])	further results
c1ccc(-c2cc(-c3ccco3)n[nH]2)cc1 [3-(furan-2-yl)-5-phenyl-1H-pyrazole]								nematicidal activity (Meloidogyne incognita [1]): at 8 ppm but not 1 ppm
CS/C(C)=N\OC(=O)N(C)SN(C)C(=O)O/N=C(\C)SC [Thiodicarb, reference compound]								pest or weed control at 0.375 mg/g [2]: 6%; pest or weed control at 1.5 mg/g [2]: -23%
FC(F)(F)c1ccc(-c2noc(-c3cccs3)n2)cc1 [compound 5213]								pest or weed control at 4000 g/ha (root knot nematode; 4 kg/ha, read-out: percent control (galling reduction), 4 kg/ha rate): 85%; pest or weed control at 8000 g/ha (root knot nematode; 8 ka/ha, read-out: percent control (galling reduction), 8 ka/ha rate): 98%
Clc1cc(-c2noc(-c3cccs3)n2)ccc1Br [compound 5820]	0.4 µg/mL (≈ 1.17 µM)	0.4 µg/mL (≈ 1.17 µM)	0.4 µg/mL (≈ 1.17 µM)	6.3 µg/mL (≈ 18.4 µM)	no			
Clc1cc(-c2noc(-c3ccco3)n2)ccc1Br [compound 5821]	0.4 µg/mL (≈ 1.23 µM)	0.4 µg/mL (≈ 1.23 µM)	0.4 µg/mL (≈ 1.23 µM)	0.4 µg/mL (≈ 1.23 µM)	no			
Cc1cc(Cl)ccc1-c1noc(-c2cccs2)n1 [compound 5822]	1.6 µg/mL (≈ 5.78 µM)	0.4 µg/mL (≈ 1.45 µM)	0.4 µg/mL (≈ 1.45 µM)	1.6 µg/mL (≈ 5.78 µM)	no	1.6 µg/mL (≈ 5.78 µM)		
Cc1cc(Br)ccc1-c1noc(-c2cccs2)n1 [compound 5824]	1.6 µg/mL (≈ 4.98 µM)	0.4 µg/mL (≈ 1.25 µM)	0.4 µg/mL (≈ 1.25 µM)	1.6 µg/mL (≈ 4.98 µM)	no			EC50 L4 2D (C. elegans; [9]): no
Clc1ccccc1-c1cnc(-c2cccs2)o1 [compound 5826]	6.3 µg/mL (≈ 24.1 µM)	1.6 µg/mL (≈ 6.11 µM)	1.6 µg/mL (≈ 6.11 µM)	6.3 µg/mL (≈ 24.1 µM)		6.3 µg/mL (≈ 24.1 µM)	6.3 µg/mL (≈ 24.1 µM)	
Brc1ccccc1-c1cnc(-c2cccs2)o1 [compound 5827]	6.3 µg/mL (≈ 20.6 µM)	1.6 µg/mL (≈ 5.23 µM)	1.6 µg/mL (≈ 5.23 µM)	6.3 µg/mL (≈ 20.6 µM)		6.3 µg/mL (≈ 20.6 µM)	25 µg/mL (≈ 81.7 µM)	
Clc1ccccc1-c1cnc(-c2ccco2)o1 [compound 5828]	1.6 µg/mL (≈ 6.51 µM)	1.6 µg/mL (≈ 6.51 µM)	1.6 µg/mL (≈ 6.51 µM)		no			EC50 L4 3D (C. elegans; L4 larvae, three days of exposure): no; EC50 L4 2D (C. elegans; [9]): no
Cc1cc(F)ccc1-c1noc(-c2cccs2)n1 [compound 5845]		1.6 µg/mL (≈ 6.15 µM)	0.4 µg/mL (≈ 1.54 µM)	25 µg/mL (≈ 96 µM)	no	25 µg/mL (≈ 96 µM)		EC50 L1 1D (C. elegans; L1 larvae, one day of exposure): no
Cc1cc(F)ccc1-c1noc(-c2ccco2)n1 [compound 5846]	1.6 µg/mL (≈ 6.55 µM)	0.4 µg/mL (≈ 1.64 µM)	0.4 µg/mL (≈ 1.64 µM)	1.6 µg/mL (≈ 6.55 µM)		1.6 µg/mL (≈ 6.55 µM)	1.6 µg/mL (≈ 6.55 µM)	
Fc1ccc(-c2noc(-c3cccs3)n2)c(F)c1 [compound 5847]		0.4 µg/mL (≈ 1.51 µM)	0.4 µg/mL (≈ 1.51 µM)	1.6 µg/mL (≈ 6.05 µM)	no	1.6 µg/mL (≈ 6.05 µM)		EC50 L1 1D (C. elegans; L1 larvae, one day of exposure): no; pest or weed control at 0.375 mg/g ([2]; 0.375 mg ai/gram seed, test b): 66%; pest or weed control at 1.5 mg/g ([2]; 1.5 mg ai/gram seed, test b): 80%
Fc1cc(Br)ccc1-c1noc(-c2cccs2)n1 [compound 5848]	1.6 µg/mL (≈ 4.92 µM)	0.4 µg/mL (≈ 1.23 µM)	0.4 µg/mL (≈ 1.23 µM)	1.6 µg/mL (≈ 4.92 µM)		1.6 µg/mL (≈ 4.92 µM)	1.6 µg/mL (≈ 4.92 µM)	
Fc1ccc(-c2noc(-c3ccco3)n2)c(F)c1 [compound 5849]	6.3 µg/mL (≈ 25.4 µM)	0.4 µg/mL (≈ 1.61 µM)	1.6 µg/mL (≈ 6.45 µM)	6.3 µg/mL (≈ 25.4 µM)	no			
Fc1cc(Br)ccc1-c1noc(-c2ccco2)n1 [compound 5850]	1.6 µg/mL (≈ 5.18 µM)	0.4 µg/mL (≈ 1.29 µM)	0.4 µg/mL (≈ 1.29 µM)	1.6 µg/mL (≈ 5.18 µM)		1.6 µg/mL (≈ 5.18 µM)	1.6 µg/mL (≈ 5.18 µM)	
Fc1cc(Cl)ccc1-c1noc(-c2cccs2)n1 [compound 5860]	1.6 µg/mL (≈ 5.7 µM)	0.4 µg/mL (≈ 1.42 µM)	0.4 µg/mL (≈ 1.42 µM)	1.6 µg/mL (≈ 5.7 µM)		1.6 µg/mL (≈ 5.7 µM)	1.6 µg/mL (≈ 5.7 µM)	
Fc1cc(Cl)ccc1-c1noc(-c2ccco2)n1 [compound 5861]	0.4 µg/mL (≈ 1.51 µM)	0.4 µg/mL (≈ 1.51 µM)	0.4 µg/mL (≈ 1.51 µM)	1.6 µg/mL (≈ 6.05 µM)		1.6 µg/mL (≈ 6.05 µM)	1.6 µg/mL (≈ 6.05 µM)	
Fc1cc(F)c(-c2noc(-c3cccs3)n2)c(F)c1 [compound 5878]								pest or weed control at 0.375 mg/g ([2]; 0.375 mg ai/gram seed, test b): 43%; pest or weed control at 1.5 mg/g ([2]; 1.5 mg ai/gram seed, test b): 77%
Clc1ccc(-c2nsc(-c3cccs3)n2)cc1 [compound 5905]	0.4 µg/mL (≈ 1.43 µM)	0.4 µg/mL (≈ 1.43 µM)	0.4 µg/mL (≈ 1.43 µM)					
Clc1ccc(-c2nsc(-c3ccco3)n2)cc1 [compound 5906]	0.4 µg/mL (≈ 1.52 µM)	0.4 µg/mL (≈ 1.52 µM)	0.4 µg/mL (≈ 1.52 µM)					
Fc1cc(Cl)ccc1-c1nsc(-c2ccco2)n1 [compound 5953]								pest or weed control at 0.375 mg/g ([2]; 0.375 mg ai/gram seed, test b): 44%; pest or weed control at 1.5 mg/g ([2]; 1.5 mg ai/gram seed, test b): 77%
CCOP(=O)(SC(C)CC)N1CCSC1=O (stereo not drawn) [fosthiazate]								0-3 vigor 16DAP (Meloidogyne incognita [3]): 3.0; 0-3 vigor 21DAP (Meloidogyne incognita [3]): 3.0; feeder root (3 = ave) 31DAP (Meloidogyne incognita [3]): 2.3; gall % 31DAP (Meloidogyne incognita [3]): 5%; root wgt (g) 31DAP (Meloidogyne incognita [3]): 26.4 g; top wgt (lbs) 31DAP (Meloidogyne incognita [3]): 2.01 lbs; total fruit (lbs) (Meloidogyne incognita [3]): 1.25 lbs
